The text below walks through data of patent publication US20240207202A1, “COMBINATION THERAPIES TARGETING MITOCHONDRIAL BIOGENESIS FOR CANCER THERAPY” (The Wistar Institute of Anatomy and Biology, priority 2015, published 2024).

The test system of experiment [1] is M-MITF. Nature of the experiment: M-MITF gene expression by qRT-PCR in WM9 cells. In kind it is cell-based, human. The conditions noted are these: WM9, 48 h, Gamitrinib 1 μM added to PLX4720 10 μM and PD0325901 1 μM. The protocol: One μg total mRNA was reverse transcribed using a Maxima First Strand cDNA Synthesis Kit for qRT-PCR (Thermo Fisher). Fast SYBR® Green Master Mix (Life Technologies) was used with cDNA template and primers to evaluate the expression of target genes and GAPDH. Primers used were purchased from Integrated DNA Technologies. Amplifications were performed using an Applied Biosystems® 7500 Real-Time PCR System (Life Technologies). All experiments were performed in triplicate. Expression ratios of controls were normalized to 1. Please see Extended Experimental Procedures for the list of PCR primer sequences.

Experiment [2] concerns WM9 cells. The experiment in a line: Cell viability by CellTiter Glo in WM9 cells. In kind it is cell-based, human. To be noted: WM9, 72 h, Gamitrinib titrated with PLX4720 10 μM or PLX4720 10 μM and PD0325901 1 μM. On the procedure: (§1) Cell viability was measured by the MTT assay or CellTiter-Glo luminescent cell viability assay (Promega). For the assessment of cell clonogenicity, cells were seeded into 12-well tissue culture plates at a density of 500 cells/well as biological triplicates in drug-free medium. Medium was refreshed every 3 or 4 days for 14 days. Colonies were then stained overnight with methanol containing 0.05% crystal violet. After extensive washing with distilled H2O, cells were air-dried and subjected to image acquisition using a Nikon D200 DLSR camera.

For experiment [3], the system named is melanoma cells. The experiment in a line: Cell clonogenicity (colony formation). To be noted: long-term pretreatment, Gamitrinib 0.25 and 0.5 μM in combination with PLX4720. In kind it is cell-based, human. On the procedure: as §1
The test system of experiment [4] is autophagic flux. The experiment in a line: Autophagic flux in WM9 cells expressing mCherry-eGFP-LC3B. In kind it is cell-based, human. To be noted: WM9, 72 h, Gamitrinib 1 μM or Spautin-1 10 μM combined with PLX4720 10 μM/PD0325901 1 μM. The protocol: WM9 cells stably expressing pLVO-Puro-mCherry-eGFP-LC3 were analyzed with a BD LSR II flow cytometer. Fluorescence of mCherry and eGFP was recorded to derive the ratio of mCherryheight over eGFP-height. This ratio indicates the autophagic flux.
Briefly, autophagic flux was assessed by FACS analysis of WM9 cells expressing the mCherry-eGFPLC3B construct that were transfected with the indicated siRNAs targeting autophagy and ER stress response and treated for 72 h with DMSO or the combination of PLX4720 at 10 μM and PD0325901 at 1 μM. The data represent the average of 2 biological replicates. Induction of apoptosis and cell death was assessed by PSVue 643 staining in WM9 cells expressing the mCherry-eGFP-LC3B construct transfected with the indicated siRNAs targeting autophagy and ER stress response and treated for 72 h with DMSO or the combination of PLX4720 at 10 μM and PD0325901 at 1 μM. Autophagic flux was assessed by FACS analysis of WM9 cells expressing the mCherry-eGFPLC3B construct treated for 72 h with Gamitrinib at 1 μM or Spautin-1 at 10 μM in combination with PLX4720 at 10 μM/PD0325901 at 1 μM. Cells treated with DMSO were used as the control for setting up the gate. Induction of apoptosis and cell death was assessed by PSVue 643 staining in WM9 cells treated for 72 h with Gamitrinib at 1 μM or Spautin-1 at 10 μM in combination with PLX4720 at 10 μM/PD0325901 at 1 μM. […]

The test system of experiment [5] is BRAF-mutated resistant melanoma cell lines. The experiment in a line: Induction of apoptosis and cell death by PSVue 643 staining in acquired drug resistant melanoma cell lines. Type of experiment: cell-based, human. On the procedure:
(§2) Adherent melanoma cells were harvested with 0.05% Trypsin-EDTA and were washed once with 1×DPBS. Cells were labeled with CellTrace™ Violet according to the manufacturer's protocol and were allowed to adhere to tissue culture plates overnight following the drug treatment. At indicated time points following the drug treatment, floating and adherent cells were pooled, washed with Hank's Buffered Salt Solution (HBSS) and then stained with CellROX Deep Red at 2.5 μM or MitoTracer Red at 0.25 μM for 1 h in a 37° C. humidified incubator supplied with 5% CO2. Cells were then pelleted, washed with DPBS, and stained with PSVue® 643 at 5 μM diluted in TES buffer for 5 min in the dark. Cells were then immediately subjected to FACS analysis using a BD LSR II flow cytometer and at least 5,000 cells per sample were acquired.
Labeling cells with Propidium Iodide and PSVue—Following centrifugation, cells were resuspended in 0.1 ml 1×PBS, co-stained with propidium iodide at 1 μg/ml and PSVue® 643 at 5 μM, and then stained with PSVue® 643 at 5 μM alone. Cell suspensions were kept in the dark at room temperature for 5 min. 0.2 ml 1×PBS supplemented with 10% FBS was added to each cell suspension and cells were immediately analyzed by BD LSRII.
Separation of live cells from dead cells including early apoptotic cells—Based on the fluorescence of PSVue 643, cells are separated into 2 subpopulations, live cells (PSVue 643Neg) and dead cells including early apoptotic cells (PSVue 643Pos).

Experiment [6] deals with 1205Lu melanoma xenograft. Nature of the experiment: Tumor volume of 1205Lu melanoma xenografts. Type of experiment: in vivo, mice. The conditions noted are these: 1205Lu xenografts; for % T/C (percentages of tumor volumes): Table 7, 17 days, alone or with PLX4720 200 mg/kg diet.
For experiment [7], the system named is mitochondrial mass. Nature of the experiment: Mitochondrial mass by MitoTracker Red. Type of experiment: cell-based, human. To be noted: WM9, 72 h, Gamitrinib 1 μM combined with MAPK pathway inhibitors. On the procedure:
as §2

Experiment [8] has as its system 2-NBDG uptake. Nature of the experiment: Uptake of 2-NBDG in WM9 cells. Type of experiment: cell-based, human. The conditions noted are these: WM9, 72 h, Gamitrinib combined with PLX4720 10 μM. The protocol:
Cells were washed with HBSS and were then pre-incubated with Opti-MEM (Life Technologies) for 15 min. Cells were then incubated with DMEM deprived of glucose, glutamine and phenol red (Life Technologies, cat. #A14430-01) and Fetal Bovine Serum that was supplemented with 2-NBDG (Cayman Chemical, cat. #11046) at […] for 1 h. Cells were washed with HBSS and were immediately harvested for FACS analysis.

Consider Gamitrinib, for which the “M-MITF expression up-regulated by MAPK pathway inhibitors” value in experiment [1] is given as “further down-regulated”. Besides, the cell viability entry in experiment [2] was “significantly impaired cell viability”. The colony formation entry in experiment [3] is on record as “substantially inhibited colony formation”. Moreover, in experiment [4], the autophagic flux result is “decreased the autophagic flux”. Also, in experiment [5] (1 CR cell line (WM9 CR), Gamitrinib 1 and 2.5 μM, 48 h), the “cell death in combination therapy resistant (CR) cell line” value was “significantly induced cell death”. In addition, the “resistant cell lines in which apoptosis and cell death was significantly induced” value in experiment [5] (23 resistant cell lines, 2.5 μM Gamitrinib, 72 hours) is 18 of 23. Besides, the “BRAF inhibitor resistant (BR) cell lines in which cell death was significantly induced” value in experiment [5] (BR cell lines, PLX4720 10 μM plus Gamitrinib 2.5 μM, 48 h) is given as 7 out of 9. In experiment [6] (Gamitrinib 15 mg/kg alone), the tumor growth result is given as “significantly impaired tumor growth”. Also, the “% T/C (percentages of tumor volumes)” value came to 124.59% in experiment [6] (gamitrinib 5 mg/kg QD i.p.) and 57.3% in experiment [6] (gamitrinib 15 mg/kg QD i.p.). The mitochondrial mass result in experiment [7] is on record as “decreases”. In addition, in experiment [8], the “uptake of 2-NBDG” value is “decreased uptake of 2-NBDG”.
